Test results reported in PMC7381729, “A new class of PentixaFor- and PentixaTher-based theranostic agents with enhanced CXCR4-targeting efficiency” (Theranostics, 2020).
Read-outs that look alike come from different tables or passages of the source. Where a SMILES comes first, the peptide text is derived from it. Side-chain parts run from the residue outwards. [ ]: non-standard residue; d: D form. The star is where a group is joined. DOTA = O=C(O)CN1CCN(CC(=O)O)CCN(CC(=O)*)CCN(CC(=O)O)CC1; dTyr(3-I) = N[C@H](Cc1ccc(O)c(I)c1)C(=O)O; 2Nal = N[C@@H](Cc1ccc2ccccc2c1)C(=O)O; dNMeOrn = CN[C@H](CCCN)C(=O)O; 4Amb = NCc1ccc(C(=O)O)cc1; 4Abz = Nc1ccc(C(=O)O)cc1

What was measured:
[1] = Lipophilicity, modified shake-flask method; format: physicochemical; conditions: O/PBS, radiolabeled compound, means ± SD (n=6)
Procedure: The lipophilicity (log PO/PBS) of the ^68Ga- and ^177Lu-labeled compounds in this study was determined via a modified shake-flask method.

[2] = test system: Daudi (human B-cell lymphoma) xenograft bearing CB-17 SCID mice; assay: Biodistribution in Daudi xenograft bearing mice; format: in vivo, mouse; conditions: for Initial activity retained in the Daudi xenografts after 48h: 48h p.i. relative to early time point
Procedure: (§1) The biodistribution of selected compounds was investigated in Daudi (human B-cell lymphoma) xenograft bearing female CB-17 SCID mice (6-8 weeks, Charles River, Sulzfeld, Germany), [29]. All animal experiments were performed in accordance with current animal welfare regulations in Germany (approval #55.2-1-54-2532-71-13).
(§2) Animals (n=4-5 per group) were injected intravenously with 5-10 MBq (0.08-0.11 nmol peptide per mouse) of the respective ^68Ga- and^ 177Lu-labeled CXCR4 ligands in PBS (100 µL) into the tail vein under isoflurane anesthesia. CXCR4-specificity of binding was determined by coinjection of 50 µg AMD3100 per mouse. The animals were sacrificed 1, 6 and 48h post injection (p.i.), and the organs of interest were dissected. The radioactivity was measured in weighted tissue samples using a γ-counter. Data are expressed in % ID/g tissue (mean ± SD).

[3] = In vivo metabolite analysis (radio-HPLC); design: species or system mouse; conditions: CB17 SCID mice, 0.5h p.i., i.v. app. 35 MBq; radio-HPLC of extracts
Procedure: 68Ga-labeling was performed as published previously using a 68Ge/68Ga generator (iTHEMBA Labs, South Africa) and a GallElut + synthesis module (SCINTOMICS GmbH, Germany). Usually, 5 nmol of precursor peptide were used, yielding the 68Ga-labeled peptides in specific activities of 100 to 120 […]
For 177Lu-labeling, the peptides were dissolved in water to yield a 1 mM solution. Of this solution, the required volume was added to 177LuCl3 in 0.04 M HCl (ITG/ITM, Garching, Germany; activity concentration: 370 MBq/500 µl) to achieve a peptide-to -177Lu-activity ratio of 1 nmol peptide per 225 MBq 177LuCl3. To this mixture, 1 M NH4OAc was added (calculated to be 10% of total reaction volume), and the mixture was heated to 90°C for 4 0 min. […]
Human glioma U87 cells overexpressing CD4 and CXCR4 (U87CD4CXCR4) cells were kept in cultivation at least one week before starting the experiment. […] Perkin-Elmer’s LANCE cAMP assay kit (catalog #AD0262) based on time-resolved fluorescence resonance energy transfer (TR -FRET) was utilized to determine the ability of [natLu]DOTA -r -a -ABA -iodo CPCR4 and [ natLu]PentixaTher vs the reference CXCL12 to inhibit cAMP production induced by 5 µM Forskolin. […]
(15,000 g), and the supernatants were subjected to ultrafiltration. […] The blood extract was also analyzed by radio-HPLC. For all extracts the ex traction efficiency was determined in a ɣ -counter.

[4] = Biodistribution in Daudi xenograft bearing mice; format: in vivo, mouse; conditions: female, CB-17 SCID, mouse, iv, total radioactivity, 48h p.i., means ± SD, n=4-5 animals
Procedure: as §1, §2

[5] = 1h p.i., tracer only, i.v., γ-counter, means ± SD, n=4-5 (68Ga: n=4)
[6] = 6h p.i., i.v., means ± SD, n=4-5
[7] = 48h p.i., i.v., means ± SD, n=4-5

C[C@@H](NC(=O)[C@@H](CCCNC(=N)N)NC(=O)CN1CCN(CC(=O)O)CCN(CC(=O)O)CCN(CC(=O)O)CC1)C(=O)Nc1ccc(C(=O)NCCC[C@@H]2C(=O)N[C@@H](CCCNC(=N)N)C(=O)N[C@@H](Cc3ccc4ccccc4c3)C(=O)NCC(=O)N[C@H](Cc3ccc(O)c(I)c3)C(=O)N2C)cc1 [[^177Lu]DOTA-r-a-ABA-iodoCPCR4] [metal not drawn] (cyclo([2Nal]G[dTyr(3-I)][dNMeOrn]([4Abz-dA-dR-DOTA])R))
log PO/PBS [1]: -2.8 ± 0.04 | Biodistribution adrenals [2, 5]: 4.54 ± 1.06 %iD/g | Biodistribution blood [2, 5]: 2.90 ± 0.32 %iD/g | Biodistribution colon [2, 5]: 1.19 ± 0.35 %iD/g | Biodistribution femur [2, 5]: 1.92 ± 0.20 %iD/g | Biodistribution heart [2, 5]: 1.87 ± 0.32 %iD/g | Biodistribution kidney [2, 5]: 10.3 ± 0.26 %iD/g | Biodistribution liver [2, 5]: 27.1 ± 1.87 %iD/g | Biodistribution lung [2, 5]: 7.06 ± 0.67 %iD/g | Biodistribution muscle [2, 5]: 0.58 ± 0.07 %iD/g | Biodistribution pancreas [2, 5]: 0.69 ± 0.14 %iD/g | Biodistribution small intestine [2, 5]: 1.44 ± 0.22 %iD/g | Biodistribution spleen [2, 5]: 6.72 ± 0.70 %iD/g | Biodistribution stomach [2, 5]: 1.95 ± 0.17 %iD/g | Biodistribution tumor (Daudi xenograft) [2, 5]: 17.2±2.0 %iD/g | Initial activity retained in the Daudi xenografts after 48h [2]: ~50% | Stable (intact tracer) in blood, urine and liver homogenates [3]: > 99%

CN1C(=O)[C@@H](Cc2ccc(O)c(I)c2)NC(=O)CNC(=O)[C@H](Cc2ccc3ccccc3c2)NC(=O)[C@H](CCCNC(=N)N)NC(=O)[C@H]1CCCNC(=O)c1ccc(CNC(=O)CN2CCN(CC(=O)O)CCN(CC(=O)O)CCN(CC(=O)O)CC2)cc1 [[^177Lu]PentixaTher, cyclo(D-3-iodo-Tyr^1-D-[NMe]Orn^2(AMBS-([^177Lu]DOTA)-Arg^3-Nal^4-Gly^5), metal not drawn, reference compound] (cyclo([dTyr(3-I)][dNMeOrn]([4Amb-DOTA])R[2Nal]G))
logD ([1]; octanol/PBS): -1.8 ± 0.2 | tissue to tissue ratio at 48 h ([4]; tumor / blood, read-out: Tumor/organ ratio t/blood): 201 ± 27 | tissue to tissue ratio at 48 h ([4]; tumor / colon, read-out: Tumor/organ ratio t/colon): 13 ± 5 | tissue to tissue ratio at 48 h ([4]; tumor / heart, read-out: Tumor/organ ratio t/heart): 31 ± 4 | tissue to tissue ratio at 48 h ([4]; tumor / kidney, read-out: Tumor/organ ratio t/kidney): 2.7 ± 0.4 | tissue to tissue ratio at 48 h ([4]; tumor / lung, read-out: Tumor/organ ratio t/lung): 16 ± 5 | tissue to tissue ratio at 48 h ([4]; tumor / muscle, read-out: Tumor/organ ratio t/muscle): 85 ± 15 | tissue to tissue ratio at 48 h ([4]; tumor / small intestine, read-out: Tumor/organ ratio t/small intestine): 29 ± 6 | tissue to tissue ratio at 48 h ([4]; tumor / spleen, read-out: Tumor/organ ratio t/spleen): 2.1 ± 0.5 | tissue to tissue ratio at 48 h ([4]; tumor / stomach, read-out: Tumor/organ ratio t/stomach): 27 ± 6 | Biodistribution brain ([2]; 1h p.i., tracer only, i.v., γ-counter, means ± SD, n=4-5): 0.05 ± 0.01 %iD/g | Biodistribution adrenals [2, 5]: 1.5 ± 0.6 %iD/g | Biodistribution femur [2, 5]: 0.6 ± 0.2 %iD/g | Biodistribution heart [2, 5]: 0.9 ± 0.3 %iD/g | Biodistribution kidney [2, 5]: 3.4 ± 0.6 %iD/g | Biodistribution liver [2, 5]: 10.3 ± 0.8 %iD/g | Biodistribution lung [2, 5]: 2.5 ± 0.7 %iD/g | Biodistribution muscle [2, 5]: 0.3 ± 0.1 %iD/g | Biodistribution pancreas [2, 5]: 0.4 ± 0.1 %iD/g | Biodistribution small intestine [2, 5]: 0.9 ± 0.2 %iD/g | Biodistribution spleen [2, 5]: 1.8 ± 0.3 %iD/g | Biodistribution stomach [2, 5]: 1.2 ± 0.3 %iD/g | Biodistribution tumor (Daudi xenograft) [2, 5]: 12.4±3.7 %iD/g | Biodistribution adrenals [2, 6]: 0.64 ± 0.13 %iD/g | Biodistribution blood [2, 6]: 0.09 ± 0.01 %iD/g | Biodistribution brain [2, 6]: 0.02 ± 0.005 %iD/g | Biodistribution femur [2, 6]: 0.23 ± 0.02 %iD/g | Biodistribution heart [2, 6]: 0.18 ± 0.02 %iD/g | Biodistribution kidney [2, 6]: 2.52 ± 0.33 %iD/g | Biodistribution liver [2, 6]: 9.59 ± 0.69 %iD/g | Biodistribution lung [2, 6]: 0.42 ± 0.06 %iD/g | Biodistribution muscle [2, 6]: 0.06 ± 0.01 %iD/g | Biodistribution pancreas [2, 6]: 0.09 ± 0.01 %iD/g | Biodistribution small intestine [2, 6]: 0.22 ± 0.04 %iD/g | Biodistribution spleen [2, 6]: 1.35 ± 0.41 %iD/g | Biodistribution stomach [2, 6]: 0.21 ± 0.01 %iD/g | Biodistribution tumor (Daudi xenograft) [2, 6]: 6.79 ± 0.68 %iD/g | Initial activity retained in the Daudi xenografts after 48h [2]: 25% | Biodistribution adrenals [2, 7]: 0.56 ± 0.08 %iD/g | Biodistribution blood [2, 7]: 0.02 ± 0.001 %iD/g | Biodistribution brain [2, 7]: 0.007 ± 0.002 %iD/g | Biodistribution femur [2, 7]: 0.22 ± 0.05 %iD/g | Biodistribution heart [2, 7]: 0.11 ± 0.01 %iD/g | Biodistribution kidney [2, 7]: 1.20 ± 0.13 %iD/g | Biodistribution liver [2, 7]: 8.25 ± 2.23 %iD/g | Biodistribution lung [2, 7]: 0.21 ± 0.06 %iD/g | Biodistribution muscle [2, 7]: 0.04 ± 0.005 %iD/g | Biodistribution pancreas [2, 7]: 0.08 ± 0.01 %iD/g | Biodistribution small intestine [2, 7]: 0.11 ± 0.02 %iD/g | Biodistribution spleen [2, 7]: 1.58 ± 0.33 %iD/g | Biodistribution stomach [2, 7]: 0.12 ± 0.02 %iD/g | Biodistribution tumor (Daudi xenograft) [2, 7]: 3.27 ± 0.41 %iD/g
